Laboratory results from ChEMBL document CHEMBL1125506, “Fluoronaphthyridines as antibacterial agents. 6. Synthesis and structure-activity relationships of new chiral 7-(1-, 3-, 4-, and 6-methyl-2,5-diazabicyclo[2.2.1]heptan-2-yl)naphthyridine analogues of 7-[(1R,4R)-2,5- diazabicyclo[2.2.1]heptan-2-yl]-1-(1,1-dimethylethyl)-6-fluoro-1,4-dihy …” (J Med Chem, 1992).
Values after ≈ are worked out from the molar mass of the structure shown.

Experiments:
Mus musculus [1] = assay: In vivo efficacy on systemic infections caused by Streptococcus pneumoniae A9585 in mice after peroral administration; format: functional; conditions: po, read-out: PD50
Mus musculus [2] = assay: In vivo efficacy on systemic infections caused by Staphylococcus aureus A15090 in mice after intramuscular administration; format: functional; conditions: im, read-out: PD50
[3] = Partition coefficient (logD); format: physicochemical; conditions: octanol/water
[4] = Plasma half-life after intravenous administration to mice; format: ADME, organism-based; conditions: mouse
Bacteroides fragilis = assay: In vitro antibacterial activity against Bacteroides fragilis A-22,862; format: functional
[5] = Percent urinary recovery in 24 hr after peroral administration to mice; format: ADME, organism-based; conditions: mouse, urine, po; read-out: UR
[6] = Acute toxicity after peroral administration to mice; format: organism-based; conditions: mouse, in vivo, po
Mus musculus [7] = assay: In vivo efficacy on systemic infections caused by Pseudomonas aeruginosa A9843 in mice after peroral administration; format: functional; conditions: po, read-out: PD50
[8] = Plasma half-life after peroral administration to mice; format: ADME, organism-based; conditions: mouse, po
[9] = Peak concentration in blood after peroral administration to mice; format: ADME, organism-based; set-up: route oral; conditions: mouse, po
Staphylococcus aureus = assay: In vitro antibacterial activity against Staphylococcus aureus A9537; format: functional
Mus musculus [10] = assay: In vivo efficacy on systemic infections caused by Pseudomonas aeruginosa A9843 in mice after intramuscular administration; format: functional; conditions: im, read-out: PD50
Streptococcus pneumoniae = assay: In vitro antibacterial activity against Streptococcus pneumoniae A9585.; format: functional
Proteus mirabilis = assay: In vitro antibacterial activity against Proteus mirabilis A9900; format: functional
Enterococcus faecalis = assay: In vitro antibacterial activity against Enterococcus faecalis A9809; format: functional
Serratia marcescens = assay: In vitro antibacterial activity against Serratia marcescens A20019; format: functional
Escherichia coli = assay: In vitro antibacterial activity against Escherichia coli A15119; format: functional
Enterobacter cloacae = assay: In vitro antibacterial activity against Enterobacter cloacae A9656; format: functional
[11] = percent urinary recovery in 24 hr after intravenous administration to mice; format: ADME, organism-based; conditions: mouse, urine, read-out: UR
[12] = Acute toxicity after intravenous administration to mice; format: organism-based; conditions: mouse, in vivo
[13] = Peak concentration in blood after intravenous administration to mice; format: ADME, organism-based; set-up: route intravenous; conditions: mouse
Mus musculus [14] = assay: Area under curve measured as conc vs time after peroral administration to mice.; format: ADME, organism-based; set-up: unit not given here; conditions: in vivo, po
Morganella morganii = assay: In vitro antibacterial activity against Morganella morganii A15153; format: functional
Mus musculus [15] = assay: In vivo efficacy on systemic infections caused by Staphylococcus aureus A15090 in mice after peroral administration; format: functional; conditions: po, read-out: PD50
Mus musculus [16] = assay: In vivo efficacy on systemic infections caused by Streptococcus pneumoniae A9585 in mice after intramuscular administration; format: functional; conditions: im, read-out: PD50
Klebsiella pneumoniae = assay: In vitro antibacterial activity against Klebsiella pneumoniae A9664; format: functional
Mus musculus [17] = assay: Area under curve measured as conc vs time after intravenous administration to mice.; format: ADME, organism-based; set-up: unit not given here; conditions: in vivo
[18] = Solubility (water, 22C, pH 7.2); format: physicochemical; conditions: read-out: S
Pseudomonas aeruginosa = assay: In vitro antibacterial activity against Pseudomonas aeruginosa A9843; format: functional
Mus musculus [19] = assay: In vivo efficacy on systemic infections caused by Escherichia coli A15119 in mice after intramuscular administration; format: functional; conditions: im, read-out: PD50
Mus musculus [20] = assay: In vivo efficacy on systemic infections caused by Escherichia coli A15119 in mice after peroral administration; format: functional; conditions: po, read-out: PD50

Compound | ED50 (Mus musculus [2]) [mg/kg] | logD [3] | half-life [4] [h] | MIC (Bacteroides fragilis) [µg/mL] | dose excreted at 24 h [5] [%] | ED50 (Mus musculus [7]) [mg/kg] | half-life [8] [h] | Cmax [9] [ng/mL] | MIC (Staphylococcus aureus) [µg/mL] | ED50 (Mus musculus [10]) [mg/kg] | MIC (Proteus mirabilis) [µg/mL] | MIC (Serratia marcescens) [µg/mL] | MIC (Escherichia coli) [µg/mL] | MIC (Enterobacter cloacae) [µg/mL] | dose excreted at 24 h [11] [%] | Cmax [13] [ng/mL] | MIC (Morganella morganii) [µg/mL] | MIC (Klebsiella pneumoniae) [µg/mL] | solubility [18] [µg/mL] | MIC (Pseudomonas aeruginosa) [µg/mL] | further results
C[C@@H]1N[C@@H]2C[C@H]1N(c1nc3c(cc1F)c(=O)c(C(=O)O)cn3C(C)(C)C)C2.Cl | 0.9 | 0.1 | 1.22 | 2 | 18 | 2.7 | 2.63 | 9000 | 0.03 | 1.6 | 0.13 | 0.13 | 0.008 | 0.03 | 16 | 22000 | 0.13 | 0.03 | 25 | 0.5 | ED50 (Mus musculus [1]): 25 mg/kg; LD50 [6]: > 2500 mg/kg; MIC (Streptococcus pneumoniae): 0.25 µg/mL; MIC (Enterococcus faecalis): 0.25 µg/mL; LD50 [12]: 263 mg/kg; AUC (Mus musculus [14]): 41; ED50 (Mus musculus [15]): 1.6 mg/kg; ED50 (Mus musculus [16]): 14.4 mg/kg; AUC (Mus musculus [17]): 22
CC(C)(C)n1cc(C(=O)O)c(=O)c2cc(F)c(N3C[C@H]4C[C@@H]3CN4)nc21 | 0.9 | -0.41 | 1.22 | 0.5 (≈ 1.39 µM) | 34 | 4.7 | 1.6 | 10000 | 0.03 (≈ 0.0832 µM) | 1.4 | 0.06 (≈ 0.166 µM) | 0.06 (≈ 0.166 µM) | 0.008 (≈ 0.0222 µM) | 0.016 (≈ 0.0444 µM) | 30 | 20000 | 0.03 (≈ 0.0832 µM) | 0.016 (≈ 0.0444 µM) | 80 (≈ 222 µM) | 0.25 (≈ 0.694 µM) | ED50 (Mus musculus [1]): 28 mg/kg; LD50 [6]: 5000 mg/kg; MIC (Streptococcus pneumoniae): 0.13 µg/mL (≈ 0.361 µM); MIC (Enterococcus faecalis): 0.13 µg/mL (≈ 0.361 µM); LD50 [12]: 303 mg/kg; ED50 (Mus musculus [15]): 1.6 mg/kg; ED50 (Mus musculus [19]): 0.5 mg/kg; ED50 (Mus musculus [16]): 18.9 mg/kg
Cc1c(F)c(N2C[C@H]3C[C@@H]2[C@H](C)N3)nc2c1c(=O)c(C(=O)O)cn2C1CC1.Cl | 0.34 | 0.71 | 4.8 | 2 | 18 | 0.34 | 4.2 | 6000 | 0.016 | 0.78 | 0.06 | 0.13 | 0.004 | 0.016 | 16 | 12000 | 0.06 | 0.016 | 6 | 0.13 | ED50 (Mus musculus [1]): 18.9 mg/kg; MIC (Streptococcus pneumoniae): 0.06 µg/mL; MIC (Enterococcus faecalis): 0.13 µg/mL; AUC (Mus musculus [14]): 41; ED50 (Mus musculus [15]): 1.8 mg/kg; ED50 (Mus musculus [19]): 0.1 mg/kg; ED50 (Mus musculus [16]): 18.9 mg/kg; AUC (Mus musculus [17]): 59
CN1C[C@H]2C[C@@H]1CN2c1nc2c(cc1F)c(=O)c(C(=O)O)cn2C(C)(C)C |  | 0.21 | 1.6 |  | 3 | 10.2 | 1.33 | 13000 | 0.13 (≈ 0.347 µM) | 4.7 | 1 (≈ 2.67 µM) | 0.25 (≈ 0.668 µM) | 0.25 (≈ 0.668 µM) | 0.13 (≈ 0.347 µM) | 15 | 14000 | 0.5 (≈ 1.34 µM) | 0.13 (≈ 0.347 µM) | 310 (≈ 828 µM) | 2 (≈ 5.34 µM) | ED50 (Mus musculus [20]): 2.4 mg/kg; LD50 [6]: 1000 mg/kg; LD50 [12]: 188 mg/kg; AUC (Mus musculus [14]): 18; ED50 (Mus musculus [19]): 1 mg/kg; AUC (Mus musculus [17]): 14
C[C@@H]1[C@H]2C[C@H](CN2)N1c1nc2c(cc1F)c(=O)c(C(=O)O)cn2C(C)(C)C.Cl | 7.5 | 0.17 | 0.733 | 1 | 1 | 22 | 0.8 | 5000 | 0.03 | 12.5 | 0.5 | 0.25 | 0.016 | 0.06 | 2 | 13000 | 0.5 | 0.25 | 11800 | 1 | ED50 (Mus musculus [20]): 12.5 mg/kg; MIC (Streptococcus pneumoniae): 0.13 µg/mL; MIC (Enterococcus faecalis): 0.5 µg/mL; AUC (Mus musculus [14]): 5; ED50 (Mus musculus [15]): 13.1 mg/kg; ED50 (Mus musculus [19]): 2.4 mg/kg; AUC (Mus musculus [17]): 10
